Measurements published in patent publication US6936628B2, “Oral administration of epothilones” (Bristol-Myers Squibb Company, priority 2002, dated 2005).
Like-named read-outs stand apart in the source and are kept apart here.

Columns and labels:
[1] = Pharmacokinetics in mice; type: in vivo; details: nude mice
Method: The pharmacokinetics of Compound A was evaluated in nude mice after IV (5 mg/kg) and oral (15 mg/kg) administration (n=15 mice/group). Compound A was dissolved in a mixture of cremophor:ethanol:water (10:10:80) and cremophor:ethanol:phosphate buffer, pH 8 (10:10:80) for the preparation of IV and oral doses, respectively. Plasma concentrations of Compound A were determined at 10 and 45 min, and 2, 4, and 6 hours postdose from 3 mice/time point/group. Composite plasma concentration-time profiles were constructed for pharmacokinetic analysis. […] The VSS values was 38 L/kg which is greater than total body water of about 0.7 L/kg, indicating significant extravascular distribution. The T-HALF value, both after IV and oral administration, was 3.3 h.

[2] = molecular target: CYP3A4 (Homo sapiens, UniProt P08684); experiment: Inhibition of human CYP enzymes, CYP3A4
Chain of CYP3A4 (P08684 whole entry): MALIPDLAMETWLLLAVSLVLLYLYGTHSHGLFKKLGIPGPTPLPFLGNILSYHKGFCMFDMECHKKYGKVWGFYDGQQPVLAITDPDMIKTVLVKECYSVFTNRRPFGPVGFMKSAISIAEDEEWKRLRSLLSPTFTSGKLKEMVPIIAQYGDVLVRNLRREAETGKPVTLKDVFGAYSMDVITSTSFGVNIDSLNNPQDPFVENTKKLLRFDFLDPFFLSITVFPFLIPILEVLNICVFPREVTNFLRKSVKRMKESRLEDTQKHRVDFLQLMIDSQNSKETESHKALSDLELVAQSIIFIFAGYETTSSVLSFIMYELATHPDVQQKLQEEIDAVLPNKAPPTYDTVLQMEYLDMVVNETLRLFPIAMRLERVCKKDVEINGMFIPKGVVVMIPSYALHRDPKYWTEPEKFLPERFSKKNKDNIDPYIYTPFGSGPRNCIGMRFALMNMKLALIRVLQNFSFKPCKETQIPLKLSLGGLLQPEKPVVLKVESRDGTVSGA

[3] = Stability of diluted solutions; type: physicochemical; details: diluted with 0.9% Sodium Chloride Injection, 5° C. or room temperature and room light
[4] = in vivo; details: Balb/c nu/nu, mouse, po
[5] = rat, in vivo
[6] = in vitro; details: human, Caco-2
[7] = test system: tubulin isolated from calf brain; type: biochemical
[8] = Microsomal incubation, dog; details: dog liver microsomes + NADPH, 20 μM
[9] = Single dose IV toxicokinetic study in dogs; type: in vivo; details: both sexes, dog, plasma, IV infusion; for Cmax: combined across gender
Method: The single dose IV toxicokinetics of Compound A were evaluated in dogs as a part of a toxicology study. Compound A, prepared in 50 mM citrate buffer (pH 5), was given by IV infusion (over approximately 2-3 min period) at nominal doses of 0.07 and 0.35 mg/kg (the actual doses were 0.055 and 0.27 mg/kg, respectively) to 2 dogs/sex/dose. Blood samples were collected at 5 and 30 minutes, and at 1, 3, 6, 12, and 24 h after dosing. Plasma concentrations of Compound A were determined using a validated LC/MS/MS assay with a standard curve range of 2-500 ng/mL. […] Definitive comparison between sex was not made due to limited sample size per sex; however, it appeared that there were no marked differences in the systemic exposure to Compound A between male and female dogs.

[10] = molecular target: T1, HERG (IKr) potassium channel (Homo sapiens, UniProt Q12809); experiment: HERG (IKr current) assay; type: cell-based; details: 30 μM, HEK293 cells transfected with HERG
T1 construct: expressed in transfected cells; host or cells: HEK293
T1 sequence (Q12809 whole entry): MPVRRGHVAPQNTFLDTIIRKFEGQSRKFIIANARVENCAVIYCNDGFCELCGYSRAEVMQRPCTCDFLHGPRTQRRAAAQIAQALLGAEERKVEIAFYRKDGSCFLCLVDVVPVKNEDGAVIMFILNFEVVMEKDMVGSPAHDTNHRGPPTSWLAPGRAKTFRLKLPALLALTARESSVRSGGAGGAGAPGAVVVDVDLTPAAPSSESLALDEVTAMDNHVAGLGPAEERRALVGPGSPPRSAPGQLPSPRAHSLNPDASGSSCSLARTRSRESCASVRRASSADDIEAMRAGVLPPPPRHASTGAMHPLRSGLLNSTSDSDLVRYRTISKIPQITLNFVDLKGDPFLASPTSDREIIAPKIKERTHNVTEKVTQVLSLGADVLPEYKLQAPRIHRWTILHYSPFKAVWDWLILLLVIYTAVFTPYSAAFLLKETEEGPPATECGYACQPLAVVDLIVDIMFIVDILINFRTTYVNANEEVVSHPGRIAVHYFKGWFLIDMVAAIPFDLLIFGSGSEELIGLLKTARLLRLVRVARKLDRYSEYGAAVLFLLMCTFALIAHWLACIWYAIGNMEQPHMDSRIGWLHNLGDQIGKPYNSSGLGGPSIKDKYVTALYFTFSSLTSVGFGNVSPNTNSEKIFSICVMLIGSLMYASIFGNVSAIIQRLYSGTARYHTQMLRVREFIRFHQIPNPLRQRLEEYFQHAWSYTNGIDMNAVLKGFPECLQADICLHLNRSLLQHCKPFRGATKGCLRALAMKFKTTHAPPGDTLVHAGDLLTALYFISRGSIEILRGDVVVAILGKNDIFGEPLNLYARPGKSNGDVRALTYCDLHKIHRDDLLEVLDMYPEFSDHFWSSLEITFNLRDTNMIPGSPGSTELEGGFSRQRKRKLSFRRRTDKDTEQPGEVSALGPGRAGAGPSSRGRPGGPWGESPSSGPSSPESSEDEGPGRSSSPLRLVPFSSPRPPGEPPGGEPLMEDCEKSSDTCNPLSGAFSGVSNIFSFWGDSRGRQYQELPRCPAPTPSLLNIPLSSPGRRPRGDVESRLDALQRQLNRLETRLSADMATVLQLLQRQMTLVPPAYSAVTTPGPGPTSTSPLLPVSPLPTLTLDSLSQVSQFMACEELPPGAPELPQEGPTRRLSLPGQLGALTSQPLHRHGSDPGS
Method: (§1) Human embryonic kidney (HEK293) cells stably transfected with the human ether-a-go-go related gene (HERG) cDNA were utilized in the HERG assay. Rabbit Purkinje fibres were used for the Purkinje-fibre action potential assay^7.
In a non-GLP study^7, Compound A was evaluated for effects on potassium channel current at concentrations of 10 and 30 μM. The human ether-a-go-go related gene (HERG) encodes the rapidly activating delayed-rectifier potassium channel (IKr) in heart. […] Based on the findings, it is unlikely that Compound A would cause IKr-mediated increases in the QT interval at anticipated therapeutic plasma concentrations.

[11] = test system: rabbit Purkinje fiber; experiment: Rabbit Purkinje-fiber action potential model; type: cell-based; details: 30 μM
Method: as §1
In a non-GLP study^7, Compound A, at concentrations of 3, 10 and 30 μM, was evaluated in an in vitro rabbit Purkinje fiber model. This model was developed to determine if a compound would affect the action-potential duration of the Purkinje fiber or other action-potential parameters. […] Based on these findings, Compound A is unlikely to provoke clinically relevant electrocardiographic effects in vivo.

[12] = Liver S9 incubation, dog; details: dog liver S9, 20 μM
[13] = molecular target: human CYP2C19 (Homo sapiens, UniProt P33261); experiment: biochemical
Chain of human CYP2C19 (P33261 whole entry): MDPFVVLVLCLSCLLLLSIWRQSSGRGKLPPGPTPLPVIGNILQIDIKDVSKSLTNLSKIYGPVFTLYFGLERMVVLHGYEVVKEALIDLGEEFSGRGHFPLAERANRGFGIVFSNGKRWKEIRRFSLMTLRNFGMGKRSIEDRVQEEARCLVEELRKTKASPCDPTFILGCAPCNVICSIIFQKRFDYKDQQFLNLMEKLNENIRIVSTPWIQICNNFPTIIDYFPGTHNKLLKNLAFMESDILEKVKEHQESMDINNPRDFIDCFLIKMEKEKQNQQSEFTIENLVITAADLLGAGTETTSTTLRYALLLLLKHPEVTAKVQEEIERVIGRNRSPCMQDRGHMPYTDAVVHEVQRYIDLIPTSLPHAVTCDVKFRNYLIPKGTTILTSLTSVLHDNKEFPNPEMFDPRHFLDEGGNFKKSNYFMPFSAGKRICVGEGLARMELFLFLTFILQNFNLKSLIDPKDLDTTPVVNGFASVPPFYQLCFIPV

[14] = Microsomal incubation, human; details: human liver microsomes + NADPH, 20 μM
[15] = vehicle 1 versus vehicle 2
Method: In another pharmacokinetic study, fasted male Sprague-Dawley rats, assigned to two IA groups (2 mg/kg) and one oral (8 mg/kg) group (n=3/group), were administered a single dose of Compound A. Compound A was prepared for IA administration in two separate vehicles: vehicle 1, cremophor:ethanol:water (10:10:80), and vehicle 2, ethanol:phosphate buffer, 0.05 M, pH 7.4 (6:94). The vehicle for the oral administration was ethanol:phosphate buffer, 0.3 M, pH 8 (18:82). Samples were collected at 10, 15, 30, and 45 min, and at 1, 2, 4, 6, 8, 10, 24, and 48 hours after dosing.

[16] = test system: Pat-26 human pancreatic carcinoma; details: mouse, in vivo
[17] = Stability in rat EDTA plasma and whole blood; type: in vitro ADME
Method: Plasma samples from exploratory pharmacokinetic studies were analyzed for Compound A concentrations using an LC/MS/MS assay with a standard curve range of 3.9 to 2000 ng/mL. In pharmacodynamic studies, Compound A concentrations were determined using an LC/MS/MS assay with a standard curve range of 10-40000 nM (5.23-20920 ng/mL) in mouse plasma. For toxicology studies, validated LC/MS/MS assays were used to determine the concentrations of Compound A in rat and dog plasma. Analytical data management for the validated assays was carried out using Watson®. The standard curve range for the validated assay in both matrices was 2 to 500 ng/mL of Compound A. The coefficient of variation for the inter- and intra-assay precision in rat and dog plasma was within 9% and the accuracy was greater than 92%. […] Compound A was stable for at least 4 months at !20EC and through at least 3 freeze-thaw cycles in rat and dog EDTA plasma. In addition, Compound A was stable in fresh rat and dog EDTA whole blood for at least 1 h at 4EC.

C/C(=C\c1csc(CN)n1)[C@@H]1C[C@@H]2O[C@]2(C)CCC[C@H](C)[C@H](O)[C@@H](C)C(=O)C(C)(C)[C@@H](O)CC(=O)O1 (relative stereo) [Compound A, [1S-[1R*,3R*(E),7R*,10S*,11R*,12R*,16S*]]-3-[2-[2-(aminomethyl)-4-thiazolyl]-1-methylethenyl]-7,11-dihydroxy-8,8,10,12,16-pentamethyl-4,17-dioxabicyclo[14.1.0]heptadecane-5,9-dione]
Vd ([1]; mouse, plasma, IV 5 mg/kg, read-out: VSS): 38 L/kg
bioavailability ([1]; mouse, plasma, oral 15 mg/kg vs IV 5 mg/kg, read-out: absolute oral bioavailability): 21%
CLT ([1]; IV 5 mg/kg): 152 mL/min/kg
T-HALF ([1]; IV 5 mg/kg): 3.3 h
T-HALF ([1]; oral 15 mg/kg): 3.3 h
IC50 [2]: 7.1 µM
time solutions are stable after final dilution [3]: ≤ 24 h
MTD [4]: 90 mg/kg
drug related material in bile [5]: No drug related material was detected
percent of the dose recovered in the urine as parent ([5]; iv, 2 mg/kg): approximately 18%
percent of the dose recovered in the urine as parent ([5]; po, 8 mg/kg): ~2.4%
Papp at 200 μM [6]: 6 ×10⁻⁶ cm/s
Polymerization Potency, EC0.01 [7]: 7.4 µM
Ratio of Polymerization Potency of Analog/Paclitaxel [7]: 1.7
rate of oxidative metabolism [8]: 0.07
AUC ([9]; 0.055 mg/kg): 48.3 ng·h/mL
Cmax ([9]; 0.055 mg/kg): 104 ng/mL
AUC ([9]; 0.27 mg/kg): 362 ng·h/mL
Cmax ([9]; 0.27 mg/kg): 664 ng/mL
maximum inhibition of IKr current [10]: 13.5%
increase in systemic exposure with cremophor vehicle (vehicle 2 compared to vehicle 1): about 3.4 fold
increase in systemic exposure with cremophor vehicle (vehicle 2 compared to vehicle 3): ~5.3 fold
decrease of Purkinje fiber APD90 [11]: less than 10%
rate of oxidative metabolism [12]: 0.03
IC50 [13]: 2.4 µM
rate of oxidative metabolism [14]: 0.21 mmol/min/mg protein
increase in systemic exposure with cremophor vehicle [15]: about 4 fold
MTD [16]: 10 mg/kg/inj
LCK (gross log cell kill) ([16]; iv): 1.2
stable through freeze-thaw cycles ([17]; rat EDTA plasma): at least 3 freeze-thaw cycles
stable in frozen plasma ([17]; rat EDTA plasma, !20EC): at least 4 months
stable in plasma prior to processing ([17]; rat EDTA plasma, room temperature): at least 4 h
stable in fresh whole blood ([17]; rat EDTA whole blood, 4EC): at least 1 h
stable in an autosampler after processing ([17]; rat plasma samples, 4EC): at least 5 days
